What was measured:
[1] = Comparative bioavailability study, monomethyl fumarate plasma pharmacokinetics, single dose, fasting; format: in vivo, human; conditions: Treatment A over Treatment B normalized to 180 mg DMF
Procedure: This was a single center, pilot, comparative bioavailability, open-label, randomized, single-dose, 2-period, 2-sequence, crossover study under fasting conditions. A total of 12 healthy adult male or female volunteers were included in this pilot study. For each period, subjects will be confined from at least 10 hours before dosing until 12 hours post-dose. There were a washout of 7 days or more between doses. The washout period could be increased for logistical considerations. Participation of each subject in this study lasted approximately 9 days.
The delayed-release capsule were placed on the subject's tongue. Subjects were instructed to suck the delayed-release capsule until the acetylsalicylic acid coating was dissolved or up to a maximum of 1 minute after the delayed-release capsule had been placed on the subject's tongue. The delayed-release capsule should not be chewed, bitten, or swallowed during that 1 minute period or until the coating is dissolved; only the saliva could be swallowed. The subject was instructed to give a hand sign once the acetylsalicylic acid coating was dissolved (the capsule should feel and taste different). Thereafter, or up to a maximum of 1 minute after the delayed-release capsule was placed on the subject's tongue, 240 mL of water was given to subjects to swallow the capsule. Time of dosing was set to the time the capsule was placed on the tongue. […]

[2] = pretreatment with 325 mg aspirin for 4 days before DMF; cited from earlier work

Cmax Change % (A over B) [1]: did not have significant impact
Compound: CC(=O)Oc1ccccc1C(=O)O [aspirin, acetylsalicylic acid]
flushing incidence and intensity [2]: reduced
gastrointestinal events [2]: did not affect
pharmacokinetic profile of DMF [2]: did not affect

— patent publication US11013751B2, “Compositions and methods for treating multiple sclerosis” (Vitalis LLC, priority 2017, dated 2021)
